ChEMBL document CHEMBL1137266, “4-Aminoquinoline melanin-concentrating hormone 1-receptor (MCH1R) antagonists” (Bioorg Med Chem Lett, 2006)

Tests used:
[1] = target: T1, Melanin-concentrating hormone receptor 2 (Homo sapiens, UniProt Q969V1); assay: Inhibition of 125I-[Phe13,Tyr19]-MCH binding to human MCH-R2 at 2uM
[2] = target: T2, Melanin-concentrating hormone receptor 1 (Homo sapiens, UniProt Q99705); assay: Displacement of 125I-[Phe13,Tyr19]-MCH from human MCH-R1
[3] = target: T2, Melanin-concentrating hormone receptor 1; assay: Stimulation of IP3-coupled mobilization of calcium in HEK293 cells expressing MCH-R1; format: functional, cell-based
[4] = target: T2, Melanin-concentrating hormone receptor 1; assay: Inhibition of 125I-[Phe13,Tyr19]-MCH binding to human MCH-R1; details: concentration not given here
[5] = target: T1, Melanin-concentrating hormone receptor 2; assay: Displacement of 125I-[Phe13,Tyr19]-MCH from human MCH-R2

T2 sequence (Q99705 whole entry): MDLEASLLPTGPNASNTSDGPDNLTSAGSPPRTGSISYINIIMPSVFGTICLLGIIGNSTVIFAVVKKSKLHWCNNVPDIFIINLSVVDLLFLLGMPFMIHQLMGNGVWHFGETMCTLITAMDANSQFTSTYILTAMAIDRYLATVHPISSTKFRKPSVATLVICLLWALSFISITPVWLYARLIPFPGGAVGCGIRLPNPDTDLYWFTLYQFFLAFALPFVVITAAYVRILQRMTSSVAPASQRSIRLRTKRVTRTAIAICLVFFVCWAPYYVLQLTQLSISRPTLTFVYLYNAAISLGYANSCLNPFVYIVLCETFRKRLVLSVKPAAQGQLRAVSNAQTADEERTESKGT
T1 sequence (Q969V1 whole entry): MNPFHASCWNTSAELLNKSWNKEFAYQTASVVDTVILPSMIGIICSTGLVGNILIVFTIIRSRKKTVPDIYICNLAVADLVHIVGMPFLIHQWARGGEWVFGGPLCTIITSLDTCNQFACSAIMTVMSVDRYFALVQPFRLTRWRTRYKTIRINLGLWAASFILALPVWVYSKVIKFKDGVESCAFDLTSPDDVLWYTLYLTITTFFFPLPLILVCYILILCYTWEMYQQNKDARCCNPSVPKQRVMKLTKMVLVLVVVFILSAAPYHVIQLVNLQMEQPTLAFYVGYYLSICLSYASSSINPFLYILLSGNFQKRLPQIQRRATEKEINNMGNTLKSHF

Row | SMILES | inhibition [1] [%] | IC50 [2] [nM] | EC50 [3] [nM] | inhibition [4] [%] | IC50 [5] [nM]
1 | CCCc1cc(N2CCC2)c2cc(NC(=O)/C=C/c3ccc(C(F)(F)F)cc3)ccc2n1 | < 50 | 2.8 | 2500 |  | 
2 | CCCc1cc(N)c2cc(NC(=O)/C=C/c3ccc(Cl)cc3Cl)ccc2n1 | < 50 | 6.6 | 904 |  | 
3 | CCCc1cc(N(CC)CC)c2cc(NC(=O)/C=C/c3ccc(C(F)(F)F)cc3)ccc2n1 | < 50 | 1100 |  |  | 
4 | CCCc1cc(N)c2cc(NC(=O)/C=C/c3ccc(-c4ccccc4)cc3)ccc2n1 | < 50 | 1.1 | 118 |  | 
5 | CCCc1cc(N)c2cc(NC(=O)/C=C/c3ccc(C(F)(F)F)cc3)ccc2n1 (stereo in doubt; form 3) [listing 1 of 2 here] | < 50 |  |  |  | 
6 | CCCc1cc(N)c2cc(NC(=O)/C=C/c3ccc(N)cc3)ccc2n1 | < 50 | 190 |  |  | 
7 | CCc1cc(N)c2cc(NC(=O)/C=C/c3ccc(C(F)(F)F)cc3)ccc2n1 | < 50 | 1.2 | 110 |  | 
8 | CCCc1cc(O)c2cc(NC(=O)/C=C/c3ccc(C(F)(F)F)cc3)ccc2n1 | < 50 |  |  | < 50 | 
9 | CCCc1cc(N)c2cc(NC(=O)/C=C/c3ccc(F)cc3)ccc2n1 | < 50 | 130 | 200 |  | 
10 | CCCc1cc(N2CCCCC2)c2cc(NC(=O)/C=C/c3ccc(C(F)(F)F)cc3)ccc2n1 | < 50 | > 4000 |  |  | 
11 | CCCCCc1cc(N)c2cc(NC(=O)/C=C/c3ccc(C(F)(F)F)cc3)ccc2n1 | < 50 | 1.2 | 90 |  | 
12 | CCCc1cc(NC2CC2)c2cc(NC(=O)/C=C/c3ccc(C(F)(F)F)cc3)ccc2n1 | < 50 | 40 |  |  | 
13 | CCCc1cc(N)c2cc(NC(=O)/C=C/c3ccc(CC)cc3)ccc2n1 | < 50 | 1.4 | 160 |  | 
14 | CCCc1cc(NCC)c2cc(NC(=O)/C=C/c3ccc(C(F)(F)F)cc3)ccc2n1 | < 50 | 4.8 | 340 |  | 
15 | CCCc1cc(N)c2cc(NC(=O)/C=C/c3ccc(I)cc3)ccc2n1 | < 50 | 2.3 | 280 |  | 
16 | CCCc1cc(N)c2cc(NC(=O)c3ccc(C(F)(F)F)cc3)ccc2n1 | < 50 | 10000 |  |  | 
17 | CCCc1cc(N)c2cc(NC(=O)CCc3ccc(C(F)(F)F)cc3)ccc2n1 | < 50 | 13 | 120 |  | 
18 | CCCc1cc(N)c2cc(NC(=O)Cc3ccc(C(F)(F)F)cc3)ccc2n1 | < 50 | 4000 |  |  | 
19 | CCCc1cc(N)c2cc(NC(=O)/C=C/c3ccc(C(F)(F)F)cc3)ccc2n1 (stereo in doubt; form 2) [listing 1 of 2 here] |  | 2 | 40 |  | 
20 | Cc1cc(N)c2cc(NC(=O)/C=C/c3ccc(C(F)(F)F)cc3)ccc2n1 | < 50 | 8 | 140 |  | 
21 | CCCc1cc(N)c2cc(NC(=O)/C=C/c3ccc(Cl)cc3)ccc2n1 | < 50 | 6 | 96 |  | 

Row | SMILES | inhibition [1] [%] | IC50 [2] [nM] | EC50 [3] [nM] | inhibition [4] [%] | IC50 [5] [nM]
22 | CCCc1cc(N)c2cc(NC(=O)c3ccc(-c4ccc(C(F)(F)F)cc4)cc3)ccc2n1 | < 50 | 4.5 | 310 |  | 
23 | CC(C)(C)Cc1cc(N)c2cc(NC(=O)/C=C/c3ccc(C(F)(F)F)cc3)ccc2n1 | < 50 | 5.8 | 110 |  | 
24 | CCCc1cc(NC)c2cc(NC(=O)/C=C/c3ccc(C(F)(F)F)cc3)ccc2n1 | < 50 | 1.5 | 150 |  | 
25 | CCCc1cc(OC)c2cc(NC(=O)/C=C/c3ccc(C(F)(F)F)cc3)ccc2n1 | < 50 | 26 | 360 |  | 
26 | CCCCc1cc(N)c2cc(NC(=O)/C=C/c3ccc(C(F)(F)F)cc3)ccc2n1 | < 50 | 1.5 | 210 |  | 
27 | CCCc1cc(N)c2cc(NC(=O)/C=C/c3ccccc3)ccc2n1 | < 50 | 1000 |  |  | 
28 | CCCc1cc(N)c2cc(NC(=O)/C=C/c3cccc(Cl)c3)ccc2n1 | < 50 | 1100 |  |  | 
29 | CCCc1cc(N)c2cc(NC(=O)/C=C/c3ccc(O)cc3)ccc2n1 | < 50 | 1100 |  |  | 
30 | CCCc1cc(N2CCCC2)c2cc(NC(=O)/C=C/c3ccc(C(F)(F)F)cc3)ccc2n1 | < 50 | 17 | 2800 |  | 
31 | Nc1cc(C2CCC2)nc2ccc(NC(=O)/C=C/c3ccc(C(F)(F)F)cc3)cc12 | < 50 | 2 | 250 |  | 
32 | CCCc1cc(N)c2cc(NC(=O)/C=C/c3ccc(SC)cc3)ccc2n1 | < 50 | 9 | 71 |  | 
33 | CCCc1cc(N)c2cc(NC(=O)/C=C/c3ccc(C(F)(F)F)cc3)ccc2n1 (stereo in doubt; form 2) [listing 2 of 2 here] | < 50 |  |  |  | 
34 | CCCc1cc(N)c2cc(NC(=O)/C=C/c3ccc(C(F)(F)F)cc3)ccc2n1 (stereo in doubt; form 3) [listing 2 of 2 here] |  | 1.3 | 60 |  | 
35 | CC(C)c1cc(N)c2cc(NC(=O)/C=C/c3ccc(C(F)(F)F)cc3)ccc2n1 | < 50 | 2.1 | 160 |  | 
36 | CCC(C)c1cc(N)c2cc(NC(=O)/C=C/c3ccc(C(F)(F)F)cc3)ccc2n1 (stereo not drawn) | < 50 | 0.3 | 44 |  | 
37 | CCCc1cc(N)c2cc(NC(=O)/C=C/c3ccccc3Cl)ccc2n1 | < 50 | 120 | 500 |  | 
38 | CC(C)(C)c1cc(N)c2cc(NC(=O)/C=C/c3ccc(C(F)(F)F)cc3)ccc2n1 | < 50 | 0.3 | 29 |  | 
39 | CCCc1cc(N)c2cc(NC(=O)/C=C/c3ccc(C(F)(F)F)cc3)ccc2n1 (stereo in doubt; form 1) [listing 1 of 2 here] | < 50 |  |  |  | 
40 | CCCc1cc(N(C)C)c2cc(NC(=O)/C=C/c3ccc(C(F)(F)F)cc3)ccc2n1 | < 50 | 43 | 300 |  | 
41 | CCCc1cc(N)c2cc(NC(=O)CCc3ccccc3)ccc2n1 | < 50 | 8300 |  |  | 
42 | Nc1cc(C2CCCC2)nc2ccc(NC(=O)/C=C/c3ccc(C(F)(F)F)cc3)cc12 | < 50 | 0.8 | 68 |  | 

Row | SMILES | inhibition [1] [%] | IC50 [2] [nM] | EC50 [3] [nM] | inhibition [4] [%] | IC50 [5] [nM]
43 | CCCc1cc(N)c2cc(NC(=O)/C=C/c3ccc(C(C)C)cc3)ccc2n1 | < 50 | 2.9 | 520 |  | 
44 | CCCc1cc(N)c2cc(NC(=O)/C=C/c3ccc(Br)cc3)ccc2n1 | < 50 | 4 | 93 |  | 
45 | CCCc1cc(N)c2cc(NC(=O)c3ccc(-c4ccc(Cl)cc4)cc3)ccc2n1 | < 50 | 0.7 | 75 |  | 
46 | CCCc1ccc(/C=C/C(=O)Nc2ccc3nc(CCC)cc(N)c3c2)cc1 | < 50 | 4 | 3600 |  | 
47 | CCCc1cc(N)c2cc(NC(=O)/C=C/c3ccc(C(F)(F)F)cc3)ccc2n1 (stereo in doubt; form 1) [listing 2 of 2 here] |  | 1.3 | 61 |  | 
48 | CCCc1cc(NC2CCC2)c2cc(NC(=O)/C=C/c3ccc(C(F)(F)F)cc3)ccc2n1 |  | 18 | 270 |  | 960
49 | CCCc1cc(N)c2cc(NC(=O)/C=C/c3ccc(C)cc3)ccc2n1 | < 50 | 9 | 71 |  | 
50 | CCCc1cc(N)c2cc(NC(=O)/C=C/c3ccc(C(C)(C)C)cc3)ccc2n1 | < 50 | 22 | 910 |  | 
51 | CCCc1cc(N)c2cc(C(=O)NCCc3ccc(C(F)(F)F)cc3)ccc2n1 | < 50 | 2700 |  |  | 
52 | CCCc1cc(N)c2cc(NCCCc3ccc(C(F)(F)F)cc3)ccc2n1 | < 50 | 180 | 1000 |  | 
53 | Nc1cc(-c2ccccc2)nc2ccc(NC(=O)/C=C/c3ccc(Cl)cc3)cc12 | < 50 | 18.5 | 6600 |  | 
54 | CCCc1cc(N)c2cc(NC(=O)C3CCC(c4ccc(Cl)cc4)CC3)ccc2n1 (stereo not drawn) | < 50 | 4.4 | 370 |  | 
55 | Nc1cc(C2CCCCC2)nc2ccc(NC(=O)/C=C/c3ccc(C(F)(F)F)cc3)cc12 | < 50 | 1.2 | 96 |  | 
56 | CCCc1cc(N)c2cc(NC(=O)/C=C/c3ccc(OC(C)=O)cc3)ccc2n1 | < 50 | 95 | 630 |  | 
57 | CCCc1cc(N)c2cc(NC(=O)/C=C/c3ccc([N+](=O)[O-])cc3)ccc2n1 | < 50 | 20 | 310 |  | 
58 | CCCCc1ccc(/C=C/C(=O)Nc2ccc3nc(CCC)cc(N)c3c2)cc1 | < 50 | 45 | 740 |  | 
59 | CCCc1cc(N)c2cc(N(C)C(=O)CCc3ccc(C(F)(F)F)cc3)ccc2n1 | < 50 | 1700 |  |  | 
60 | CCCc1cc(N)c2cc(NC(=O)/C=C/c3ccc(Cl)c(Cl)c3)ccc2n1 | < 50 | 60 | 990 |  | 
61 | CCCc1cc(N)c2cc(NC(=O)c3ccccc3)ccc2n1 | < 50 |  |  | < 50 | 
62 | CCCc1cc(N)c2cc(NC(=O)NCc3ccc(C(F)(F)F)cc3)ccc2n1 | < 50 | 38 | 380 |  | 
